How the values were obtained:
NBD1/3D = test: Aggregation analysis using differential static light scattering (DSLS), NBD1 thermal stability; format: binding, Human; conditions: ΔTagg versus DMSO control; compound at 100 μM
Outline: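 Purified NBD1 at 0.2 mg/ml in S200 buffer (pH 7.6, 2 mM ATP, 5 mM MgCl2, 1% glycerol) was heated with compound at 1 °C/min to 70 °C. Tagg taken from the light-scattering curve inflection point; ΔTagg = compound Tagg minus mean DMSO control Tagg.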

CFTR = molecular target: T1, CFTR (Homo sapiens, UniProt P13569, DEL508-508); test: TECC24 recording of CFTR-mediated transepithelial chloride transport in ΔF508 homozygous CF-HBE cells; format: cell-based; conditions: 10 μM test agent, 48 hours incubation, AUC of forskolin-stimulated IEQ divided by vehicle AUC, primary CF-HBE cells
T1 construct: Primary human bronchial epithelial cells from a ΔF508 homozygous CF donor; host or cells: primary human bronchial epithelial cells (CF-HBE), ΔF508 homozygous donor
T1 sequence (P13569 with tags, fused parts or gaps DEL508-508): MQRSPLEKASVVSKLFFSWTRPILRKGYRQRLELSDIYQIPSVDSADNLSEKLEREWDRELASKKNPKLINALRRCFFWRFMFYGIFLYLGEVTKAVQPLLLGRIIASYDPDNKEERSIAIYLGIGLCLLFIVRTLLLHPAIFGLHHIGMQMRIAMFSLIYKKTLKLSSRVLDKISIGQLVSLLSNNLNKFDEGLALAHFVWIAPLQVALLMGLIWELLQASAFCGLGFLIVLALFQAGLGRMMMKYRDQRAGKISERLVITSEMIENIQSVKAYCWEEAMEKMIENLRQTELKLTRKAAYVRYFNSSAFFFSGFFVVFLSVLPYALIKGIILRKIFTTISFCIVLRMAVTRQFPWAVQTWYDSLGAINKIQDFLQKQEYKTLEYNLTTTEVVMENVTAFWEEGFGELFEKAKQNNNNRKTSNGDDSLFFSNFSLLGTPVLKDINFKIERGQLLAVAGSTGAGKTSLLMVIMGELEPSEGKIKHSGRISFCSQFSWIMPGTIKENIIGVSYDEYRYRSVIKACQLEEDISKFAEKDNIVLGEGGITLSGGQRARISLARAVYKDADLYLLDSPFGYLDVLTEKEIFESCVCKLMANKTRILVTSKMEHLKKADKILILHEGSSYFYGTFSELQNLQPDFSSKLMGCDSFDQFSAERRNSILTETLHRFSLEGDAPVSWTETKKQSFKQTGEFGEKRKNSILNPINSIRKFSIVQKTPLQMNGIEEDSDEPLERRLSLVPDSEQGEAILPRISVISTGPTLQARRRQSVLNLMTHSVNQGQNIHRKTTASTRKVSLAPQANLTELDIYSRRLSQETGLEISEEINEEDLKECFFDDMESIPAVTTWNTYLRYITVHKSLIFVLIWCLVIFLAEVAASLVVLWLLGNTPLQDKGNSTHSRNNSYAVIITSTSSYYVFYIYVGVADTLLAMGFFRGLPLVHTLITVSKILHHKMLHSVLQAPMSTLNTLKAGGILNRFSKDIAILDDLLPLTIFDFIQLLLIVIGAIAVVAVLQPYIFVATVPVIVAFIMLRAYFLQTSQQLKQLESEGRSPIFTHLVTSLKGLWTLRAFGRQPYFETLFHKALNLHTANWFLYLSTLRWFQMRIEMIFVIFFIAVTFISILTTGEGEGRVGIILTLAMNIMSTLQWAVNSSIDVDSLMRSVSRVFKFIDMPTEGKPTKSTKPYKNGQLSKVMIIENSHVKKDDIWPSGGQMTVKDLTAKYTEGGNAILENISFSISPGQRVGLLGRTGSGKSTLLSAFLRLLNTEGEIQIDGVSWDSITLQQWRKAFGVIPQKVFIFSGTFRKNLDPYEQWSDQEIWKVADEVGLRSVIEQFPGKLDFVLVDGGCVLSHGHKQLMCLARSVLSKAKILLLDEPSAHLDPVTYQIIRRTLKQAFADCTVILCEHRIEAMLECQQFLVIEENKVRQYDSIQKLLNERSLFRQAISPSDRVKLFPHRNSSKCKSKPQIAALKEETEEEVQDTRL
Outline: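 ΔF508 homozygous primary bronchial epithelia exposed to compound 48 h at 36.5 °C, then transepithelial voltage and resistance recorded in pH 7.4 buffer with benzamil (10 μM), forskolin (10 μM) stimulation and CFTRinh-172 (20 μM) stop. Equivalent Cl⁻ current AUC vs vehicle gives efficacy; EC50 fitted with Hill slope fixed at 1.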

TECC24 @ 10 μM over DMSO (AUC fold over DMSO) (CFTR) | SMILES | DSLS NBD1/3D Human Stability delta-T (° C.) @ 100 (μM) (NBD1/3D)
C (“C” refers to AUC @ 10 uM <= 4) | CNC(c1cccc(CCC(=O)O)c1)c1cnc(-c2cccc(Oc3c(F)cc4[nH]ccc4c3F)c2)[nH]1 (stereo not drawn) [Example 266, 3-(3-((2-(3-((4,6-Difluoro-1H-indol-5-yl)oxy)phenyl)-1H-imidazol-5-yl)(methylamino)methyl)phenyl)propanoic acid] | A (A: T ≥ 10° C.)
C (“C” refers to AUC @ 10 uM <= 4) | O=C(O)CCc1cccc(C(O)(c2cnc(-c3cc(Oc4c(F)cc5[nH]ccc5c4F)ccc3F)[nH]2)C(F)(F)F)c1 (stereo not drawn) [Example 273, 3-(3-(1-(2-(5-((4,6-difluoro-1H-indol-5-yl)oxy)-2-fluorophenyl)-1H-imidazol-5-yl)-2,2,2-trifluoro-1-hydroxyethyl)phenyl)propanoic acid] | B (B: 5-10° C.)
C (“C” refers to AUC @ 10 uM <= 4) | CC(c1cccc(CCC(=O)O)c1)(c1cnc(-c2cc(Oc3c(F)cc4[nH]ccc4c3S(C)(=O)=O)ccc2F)[nH]1)C(F)F (stereo not drawn) [Example 276, 3-(3-(1,1-Difluoro-2-(2-(2-fluoro-5-((6-fluoro-4-(methylsulfonyl)-1H-indol-5-yl)oxy)phenyl)-1H-imidazol-5-yl)propan-2-yl)phenyl)propanoic acid] | A (A: T ≥ 10° C.)
A (“A” refers to AUC @10 uM >= 12) | CC(C)(C)C(c1cccc(CCC(=O)O)c1)c1cnc(-c2cc(Oc3c(F)cc4[nH]ccc4c3F)ccc2F)[nH]1 (stereo not drawn) [Example 277, 3-(3-(1-(2-(5-((4,6-difluoro-1H-indol-5-yl)oxy)-2-fluorophenyl)-1H-imidazol-5-yl)-2,2-dimethylpropyl)phenyl)propanoic acid] | B (B: 5-10° C.)
A (“A” refers to AUC @10 uM >= 12) | CS(=O)(=O)Cc1c(Oc2ccc(F)c(-c3ncc(Cc4cccc(CCC(=O)O)c4F)[nH]3)c2)c(F)cc2[nH]ccc12 [Example 279, 3-(2-Fluoro-3-((2-(2-fluoro-5-((6-fluoro-4-((methylsulfonyl)methyl)-1H-indol-5-yl)oxy)phenyl)-1H-imidazol-5-yl)methyl)phenyl)propanoic acid] | A (A: T ≥ 10° C.)
A (“A” refers to AUC @10 uM >= 12) | CC(C)(O)c1nc(-c2cc(Oc3c(F)cc4[nH]ccc4c3F)ccc2F)[nH]c1Cc1cccc(CCC(=O)O)c1F [Example 280, 3-(3-((2-(5-((4,6-Difluoro-1H-indol-5-yl)oxy)-2-fluorophenyl)-4-(2-hydroxypropan-2-yl)-1H-imidazol-5-yl)methyl)-2-fluorophenyl)propanoic acid] | B (B: 5-10° C.)

Further lines, the compound ahead of its results:

SMILES | TECC24 @ 10 μM over DMSO (AUC fold over DMSO) (CFTR) | DSLS NBD1/3D Human Stability delta-T (° C.) @ 100 (μM) (NBD1/3D)
O=C(O)CCc1cccc(C2(c3cnc(-c4cc(Oc5c(F)c(F)c6[nH]ccc6c5F)ccc4F)[nH]3)CCOCC2)c1 [Example 167, 3-(3-(4-(2-(2-fluoro-5-((4,6,7-trifluoro-1H-indol-5-yl)oxy)phenyl)-1H-imidazol-4-yl)tetrahydro-2H-pyran-4-yl)phenyl)propanoic acid] | C (“C” refers to AUC @ 10 uM <= 4) | A (A: T ≥ 10° C.)
O=C(O)CCc1cccc(C2(c3cnc(-c4cc(Oc5c(F)cc6[nH]ccc6c5F)ccc4F)[nH]3)CCN(CC(F)(F)F)CC2)c1 [Example 169, 3-(3-(4-(2-(5-((4,6-difluoro-1H-indol-5-yl)oxy)-2-fluorophenyl)-1H-imidazol-5-yl)-1-(2,2,2-trifluoroethyl)piperidin-4-yl)phenyl)propanoic acid] | C (“C” refers to AUC @ 10 uM <= 4) | B (B: 5-10° C.)
O=C(O)CCc1cccc(C2(c3cnc(-c4cc(Oc5c(F)cc6[nH]ccc6c5CC(F)(F)F)ccc4F)[nH]3)CCS(=O)(=O)CC2)c1 [Example 170, 3-(3-(4-(2-(2-fluoro-5-((6-fluoro-4-(2,2,2-trifluoroethyl)-1H-indol-5-yl)oxy)phenyl)-1H-imidazol-5-yl)-1,1-dioxidotetrahydro-2H-thiopyran-4-yl)phenyl)propanoic acid] | C (“C” refers to AUC @ 10 uM <= 4) | B (B: 5-10° C.)
COCC(COC)(c1cccc(CCC(=O)O)c1)c1cnc(-c2cc(Oc3c(F)cc4[nH]ccc4c3F)ccc2F)[nH]1 [Example 171, 3-(3-(2-(2-(5-((4,6-Difluoro-1H-indol-5-yl)oxy)-2-fluorophenyl)-1H-imidazol-5-yl)-1,3-dimethoxypropan-2-yl)phenyl)propanoic acid] | C (“C” refers to AUC @ 10 uM <= 4) | A (A: T ≥ 10° C.)
CC(O)(c1cccc(CCC(=O)O)c1)c1c[nH]c(-c2cc(C(=O)c3ccc4[nH]ccc4c3)ccc2F)n1 (stereo not drawn) [Example 194, 3-(3-(1-(2-(2-fluoro-5-(1H-indole-5-carbonyl)phenyl)-1H-imidazol-4-yl)-1-hydroxyethyl)phenyl) propanoic acid] | C (“C” refers to AUC @ 10 uM <= 4) | B (B: 5-10° C.)
CC(O)(c1cccc(CCC(=O)O)c1)c1cnc(-c2cc(Oc3c(F)c(F)c4[nH]ccc4c3C3CC3)ccc2F)[nH]1 (stereo not drawn) [Example 205, 3-(3-(1-(2-(5-((4-cyclopropyl-6,7-difluoro-1H-indol-5-yl)oxy)-2-fluorophenyl)-1H-imidazol-5-yl)-1-hydroxyethyl)phenyl) propanoic acid] | B (“B” refers to AUC @10 uM between 4-12) | B (B: 5-10° C.)
Cc1c(Oc2cc(-c3ncc(C(C)(O)c4cccc(CCC(=O)O)c4)[nH]3)c(F)cc2F)c(F)cc2[nH]ccc12 (stereo not drawn) [Example 206, 3-(3-(1-(2-(2,4-difluoro-5-((6-fluoro-4-methyl-1H-indol-5-yl)oxy)phenyl)-1H-imidazol-5-yl)-1-hydroxyethyl)phenyl) propanoic acid] | C (“C” refers to AUC @ 10 uM <= 4) | B (B: 5-10° C.)
O=C(O)CCc1cccc(Cc2c[nH]c(-c3cc(Oc4c(F)cc5c(ccn5P(=O)(O)O)c4F)ccc3F)n2)c1F [Example 270, 3-(3-((2-(5-((4,6-Difluoro-1-phosphono-1H-indol-5-yl)oxy)-2-fluorophenyl)-1H-imidazol-4-yl)methyl)-2-fluorophenyl)propanoic acid] | C (“C” refers to AUC @ 10 uM <= 4) | C (C: ≤5° C.)
Cc1c(Oc2ccc(F)c(-c3ncc(C(C)(O)c4cccc(CCC(=O)O)n4)[nH]3)c2)c(F)cc2[nH]ccc12 (stereo not drawn) [Example 272, 3-(6-(1-(2-(2-fluoro-5-((6-fluoro-4-methyl-1H-indol-5-yl)oxy)phenyl)-1H-imidazol-5-yl)-1-hydroxyethyl)pyridin-2-yl)propanoic acid] | B (“B” refers to AUC @10 uM between 4-12) | B (B: 5-10° C.)

From US20240279220A1, “INDOLE COMPOUNDS AND METHODS OF USE” (Genzyme Corporation, priority 2021, published 2024)
